Assay results taken from ChEMBL document CHEMBL1201862, “PubChem BioAssay data set” (2004).
The source made the active and inactive calls.

Assays:
Hexokinase HKDC1 = molecular target: T1, Hexokinase HKDC1 (Homo sapiens, UniProt Q2TB90); experiment: inhibition of HKDC1 glucose phosphorylation – biochemical, W721R variant, dose response (AID 504729); assay type: functional
T1 sequence (Q2TB90 whole entry): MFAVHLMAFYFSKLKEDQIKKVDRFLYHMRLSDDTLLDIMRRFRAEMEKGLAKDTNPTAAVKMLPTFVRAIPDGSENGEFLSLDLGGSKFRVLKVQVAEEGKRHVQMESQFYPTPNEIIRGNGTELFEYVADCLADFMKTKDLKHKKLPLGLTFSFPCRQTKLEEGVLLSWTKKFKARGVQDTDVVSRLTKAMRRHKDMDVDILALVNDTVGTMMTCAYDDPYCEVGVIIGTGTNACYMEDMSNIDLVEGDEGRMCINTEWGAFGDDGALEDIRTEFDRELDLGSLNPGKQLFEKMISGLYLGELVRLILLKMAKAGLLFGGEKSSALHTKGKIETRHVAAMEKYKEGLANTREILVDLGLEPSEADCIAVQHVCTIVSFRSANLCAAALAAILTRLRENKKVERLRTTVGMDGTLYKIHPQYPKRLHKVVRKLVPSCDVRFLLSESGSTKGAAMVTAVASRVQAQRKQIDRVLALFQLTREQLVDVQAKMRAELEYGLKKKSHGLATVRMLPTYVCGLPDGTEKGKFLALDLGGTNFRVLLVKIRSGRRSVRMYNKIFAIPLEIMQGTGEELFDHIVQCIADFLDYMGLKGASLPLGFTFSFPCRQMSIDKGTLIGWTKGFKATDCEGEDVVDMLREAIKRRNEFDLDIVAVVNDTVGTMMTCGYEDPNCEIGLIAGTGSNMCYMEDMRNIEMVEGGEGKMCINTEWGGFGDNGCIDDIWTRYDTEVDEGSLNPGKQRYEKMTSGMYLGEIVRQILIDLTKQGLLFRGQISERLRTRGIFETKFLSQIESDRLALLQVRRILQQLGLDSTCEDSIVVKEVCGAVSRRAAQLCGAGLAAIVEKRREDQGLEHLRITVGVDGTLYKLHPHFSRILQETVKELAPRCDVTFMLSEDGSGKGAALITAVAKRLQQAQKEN

[1] = molecular target: Induced myeloid leukemia cell differentiation protein Mcl-1 (Homo sapiens, UniProt Q07820); assay type: functional
Cytochrome P450 3A4 = Cytochrome P450 3A4 (Homo sapiens, UniProt P08684); details: Potency;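 note: confirmatory qHTS run detecting inhibitors and substrates of CYP3A4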
Cytochrome P450 2D6 = Cytochrome P450 2D6 (Homo sapiens, UniProt P10635); experiment: qHTS Assay for Inhibitors and Substrates of Cytochrome P450 2D6. [Related pubchem assays: 410 ]; assay type: ADME; details: read-out: Potency
[2] = molecular target: T2, Heat shock factor protein 1 (Mus musculus, UniProt P38532); experiment: decrease of HSF1-responsive luciferase luminescence – cell-based, NIH3T3, dose retest, confirmation (AID 2382); assay type: functional;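 note: NIH3T3 fibroblasts with HSF1-driven luciferase reporter stressed by proteasome inhibitor MG132; luminescence from HSF1-driven luciferase expression after 8 hours of MG132 stress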
T2 sequence (P38532 whole entry): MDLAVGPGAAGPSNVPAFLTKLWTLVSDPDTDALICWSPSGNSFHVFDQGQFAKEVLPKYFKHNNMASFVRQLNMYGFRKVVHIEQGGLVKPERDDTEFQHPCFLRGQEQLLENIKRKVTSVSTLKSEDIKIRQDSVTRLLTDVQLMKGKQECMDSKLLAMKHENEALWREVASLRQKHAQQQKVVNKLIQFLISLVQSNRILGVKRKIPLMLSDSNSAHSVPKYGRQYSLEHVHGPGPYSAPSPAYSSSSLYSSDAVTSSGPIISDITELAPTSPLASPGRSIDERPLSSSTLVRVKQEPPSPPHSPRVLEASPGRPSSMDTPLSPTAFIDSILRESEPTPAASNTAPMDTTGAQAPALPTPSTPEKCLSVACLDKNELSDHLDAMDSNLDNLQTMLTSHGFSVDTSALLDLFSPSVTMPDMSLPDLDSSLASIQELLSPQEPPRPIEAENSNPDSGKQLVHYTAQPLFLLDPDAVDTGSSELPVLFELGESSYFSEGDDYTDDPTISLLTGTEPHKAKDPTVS

H9c2 = experiment: cells; assay type: functional, cell-based; details: Rattus norvegicus, H9c2, Myocardium;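 note: confirmatory concentration-response retest of ultra-high-throughput screening hits for modulation of myocardial damage; cell death induced by hydrogen peroxide oxidative stress; compound pretreatment for 60 min then peroxide exposure for 2 h; potency is for protecting the cells against peroxide damage rather than for killing them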
Estrogen receptor beta [3] = molecular target: T3, Estrogen receptor beta (Homo sapiens, UniProt Q92731); experiment: blockers of SRC-3 recruitment to ERβ – biochemical, ELISA, streptavidin-HRP readout, orthogonal assay, confirmation (AID 1060)
[4] = molecular target: Ras and Rab interactor 1/Tyrosine-protein kinase ABL1 (Homo sapiens, UniProt P00519+Q13671); assay type: functional;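 note: biochemical TR-FRET dose-response test measuring inhibition of binding between Rin1 and Abl proteins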
Estrogen receptor beta [5] = molecular target: T3, Estrogen receptor beta
Bcl-2-like protein 10 = molecular target: T4, Bcl-2-like protein 10 (Homo sapiens, UniProt Q9HD36); experiment: Bcl-B/TR3 peptide binding disruption – biochemical, fluorescence polarization, FITC-TR3 peptide, selectivity assay for Bfl-1 inhibitor project, primary screen (AID 748);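 note: fluorescence polarization from a fluorescein-labelled TR3 peptide binding purified Bcl-B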
T4 sequence (Q9HD36 whole entry): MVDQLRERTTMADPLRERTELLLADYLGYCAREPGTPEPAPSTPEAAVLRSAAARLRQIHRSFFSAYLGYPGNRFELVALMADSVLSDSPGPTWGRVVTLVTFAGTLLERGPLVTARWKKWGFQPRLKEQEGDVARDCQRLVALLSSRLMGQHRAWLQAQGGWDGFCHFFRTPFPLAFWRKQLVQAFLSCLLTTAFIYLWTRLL

[6] = molecular target: T5, Neuropeptide Y receptor type 1 (Homo sapiens, UniProt P25929); experiment: IC50 of human NPY-Y1 blockers – cell-based, dose response (AID 1277); assay type: functional
T5 sequence (P25929 whole entry): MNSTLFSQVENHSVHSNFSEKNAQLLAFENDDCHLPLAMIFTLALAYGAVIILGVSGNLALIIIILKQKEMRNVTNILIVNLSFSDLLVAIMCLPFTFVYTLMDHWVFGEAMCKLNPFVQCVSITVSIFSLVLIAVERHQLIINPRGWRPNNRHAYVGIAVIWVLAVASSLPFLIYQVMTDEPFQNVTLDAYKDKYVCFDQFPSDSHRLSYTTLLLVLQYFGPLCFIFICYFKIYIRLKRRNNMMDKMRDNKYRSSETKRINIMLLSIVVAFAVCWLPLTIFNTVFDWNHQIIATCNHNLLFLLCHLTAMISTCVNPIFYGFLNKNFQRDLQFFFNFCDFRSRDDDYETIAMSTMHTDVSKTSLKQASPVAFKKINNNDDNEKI

[7] = molecular target: T6, Neuropeptide Y receptor type 2 (Homo sapiens, UniProt P49146); experiment: IC50 for human NPY-Y2 blockade – cell-based, counter-screen for NPY-Y1 antagonist project, dose response (AID 1278); assay type: functional
T6 sequence (P49146 whole entry): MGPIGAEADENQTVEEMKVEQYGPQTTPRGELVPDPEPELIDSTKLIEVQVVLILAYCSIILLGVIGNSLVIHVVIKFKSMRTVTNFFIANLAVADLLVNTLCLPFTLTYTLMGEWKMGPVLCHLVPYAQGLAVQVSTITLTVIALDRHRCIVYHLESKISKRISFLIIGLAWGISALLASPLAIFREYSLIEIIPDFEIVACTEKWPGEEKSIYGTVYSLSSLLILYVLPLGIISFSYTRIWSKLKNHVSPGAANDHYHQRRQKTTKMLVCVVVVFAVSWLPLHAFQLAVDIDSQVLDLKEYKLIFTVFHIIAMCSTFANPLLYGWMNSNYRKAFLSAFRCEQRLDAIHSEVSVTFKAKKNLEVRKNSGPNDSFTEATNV

[8] = molecular target: T7, Carboxy-terminal domain RNA polymerase II polypeptide A small phosphatase 1 (Homo sapiens, UniProt Q9GZU7); experiment: CTDSP1 inhibitors, concentration-response, biochemical, absorbance readout, ultra-high-throughput screen actives (AID 540297); assay type: functional
T7 sequence (Q9GZU7 whole entry): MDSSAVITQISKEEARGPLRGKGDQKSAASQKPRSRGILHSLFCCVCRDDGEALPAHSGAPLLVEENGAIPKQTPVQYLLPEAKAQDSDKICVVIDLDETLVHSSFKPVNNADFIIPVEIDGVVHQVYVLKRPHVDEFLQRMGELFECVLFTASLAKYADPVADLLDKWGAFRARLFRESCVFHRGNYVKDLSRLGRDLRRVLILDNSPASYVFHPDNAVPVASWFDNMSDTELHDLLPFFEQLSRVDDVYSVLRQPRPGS

Tumor necrosis factor = Tumor necrosis factor (Homo sapiens, UniProt P01375); experiment: analog potency on TNFa NF-kB signaling – cell-based, revised, SAR follow-up (AID 2337); assay type: functional
HEK293 [9] = experiment: inhibition of NOD1-driven NF-kB reporter – cell-based, luminescence, uHTS, primary screen (AID 1578); assay type: functional; details: Homo sapiens
[10] = molecular target: T8, Nucleotide-binding oligomerization domain-containing protein 2 (Homo sapiens, UniProt Q9HC29); experiment: inhibition of NOD2-driven NF-kB reporter – cell-based, luminescence, uHTS, HEK293 (AID 1566); assay type: functional
HEK293 [11] = experiment: cells; assay type: functional, cell-based; details: Homo sapiens
HEK293 [12] = experiment: cells; assay type: functional, cell-based; details: Homo sapiens; remark: listed apart in the source
HEK293 [13] = experiment: cells; assay type: functional, cell-based; details: Homo sapiens; remark: listed apart in the source
[14] = molecular target: T8, Nucleotide-binding oligomerization domain-containing protein 2; experiment: PubChem AID 2334; assay type: functional
HEK293 [15] = experiment: NOD2 signaling inhibitors in MDP-stimulated cells, cell-based, uHTS, luminescence (AID 2001); assay type: functional; details: Homo sapiens
HEK293 [16] = experiment: cells; details: Homo sapiens
[17] = molecular target: T9, Nucleotide-binding oligomerization domain-containing protein 1 (Homo sapiens, UniProt Q9Y239); experiment: blockers of NOD1 pathway activity – revised, SAR follow-up (AID 2333); assay type: functional
T9 sequence (Q9Y239 whole entry): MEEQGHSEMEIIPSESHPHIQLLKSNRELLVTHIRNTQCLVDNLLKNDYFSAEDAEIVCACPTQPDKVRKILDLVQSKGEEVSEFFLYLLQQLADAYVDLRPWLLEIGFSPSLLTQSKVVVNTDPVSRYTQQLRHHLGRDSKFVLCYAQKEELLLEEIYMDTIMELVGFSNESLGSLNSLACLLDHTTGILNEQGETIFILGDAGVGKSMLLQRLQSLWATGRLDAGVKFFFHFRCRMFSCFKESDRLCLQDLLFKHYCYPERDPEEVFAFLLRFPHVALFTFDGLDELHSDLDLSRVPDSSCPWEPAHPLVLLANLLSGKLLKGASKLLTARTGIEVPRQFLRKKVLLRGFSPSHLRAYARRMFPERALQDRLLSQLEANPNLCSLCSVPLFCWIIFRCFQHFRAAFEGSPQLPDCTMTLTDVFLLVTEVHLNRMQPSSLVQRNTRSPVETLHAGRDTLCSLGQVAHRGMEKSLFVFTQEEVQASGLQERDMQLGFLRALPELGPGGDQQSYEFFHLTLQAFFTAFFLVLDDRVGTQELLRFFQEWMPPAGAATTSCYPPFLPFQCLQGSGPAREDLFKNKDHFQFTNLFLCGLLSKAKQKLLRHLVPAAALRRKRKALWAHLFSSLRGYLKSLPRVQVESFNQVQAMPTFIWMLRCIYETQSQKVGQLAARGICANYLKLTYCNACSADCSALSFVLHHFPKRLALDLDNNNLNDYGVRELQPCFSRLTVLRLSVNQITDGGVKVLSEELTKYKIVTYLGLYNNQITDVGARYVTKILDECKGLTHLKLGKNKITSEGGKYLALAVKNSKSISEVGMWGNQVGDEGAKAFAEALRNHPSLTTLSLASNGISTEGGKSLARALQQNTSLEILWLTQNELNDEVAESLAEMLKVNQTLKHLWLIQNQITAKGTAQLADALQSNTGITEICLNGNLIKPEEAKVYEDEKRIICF

Nonstructural protein 1 = Nonstructural protein 1 (Influenza A virus, UniProt Q194T2); assay type: functional, Influenza A virus (A/California/07/2009(H1N1))
Nonstructural protein 1, sequence (Q194T2 whole entry): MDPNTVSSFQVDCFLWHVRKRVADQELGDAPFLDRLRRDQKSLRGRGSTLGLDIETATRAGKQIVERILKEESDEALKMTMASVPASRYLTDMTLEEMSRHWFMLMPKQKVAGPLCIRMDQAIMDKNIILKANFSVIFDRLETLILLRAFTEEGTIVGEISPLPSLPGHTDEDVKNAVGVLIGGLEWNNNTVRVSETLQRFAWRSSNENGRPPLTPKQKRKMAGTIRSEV

Tumor necrosis factor, sequence (P01375 whole entry): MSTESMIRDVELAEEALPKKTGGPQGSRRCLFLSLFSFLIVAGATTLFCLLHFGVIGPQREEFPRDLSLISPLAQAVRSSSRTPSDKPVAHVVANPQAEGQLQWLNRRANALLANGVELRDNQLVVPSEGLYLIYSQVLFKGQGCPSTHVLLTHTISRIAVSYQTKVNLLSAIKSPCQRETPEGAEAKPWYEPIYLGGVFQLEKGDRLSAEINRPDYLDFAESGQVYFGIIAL
T3 sequence (Q92731 whole entry): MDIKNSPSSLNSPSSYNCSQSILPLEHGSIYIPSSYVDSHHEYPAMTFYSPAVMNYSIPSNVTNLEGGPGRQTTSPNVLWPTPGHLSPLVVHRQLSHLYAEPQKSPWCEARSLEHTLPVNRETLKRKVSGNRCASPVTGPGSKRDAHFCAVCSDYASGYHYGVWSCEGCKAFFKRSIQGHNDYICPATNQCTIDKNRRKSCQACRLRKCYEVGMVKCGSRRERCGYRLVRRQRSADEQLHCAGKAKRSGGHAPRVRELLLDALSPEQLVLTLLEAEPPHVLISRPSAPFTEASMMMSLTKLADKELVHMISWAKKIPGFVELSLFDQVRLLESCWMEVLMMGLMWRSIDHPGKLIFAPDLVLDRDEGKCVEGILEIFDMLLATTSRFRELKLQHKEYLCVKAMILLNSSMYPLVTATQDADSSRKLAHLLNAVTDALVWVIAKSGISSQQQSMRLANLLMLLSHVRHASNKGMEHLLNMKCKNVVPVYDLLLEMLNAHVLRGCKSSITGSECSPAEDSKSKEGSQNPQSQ
T8 sequence (Q9HC29 whole entry, the tested form may be a part): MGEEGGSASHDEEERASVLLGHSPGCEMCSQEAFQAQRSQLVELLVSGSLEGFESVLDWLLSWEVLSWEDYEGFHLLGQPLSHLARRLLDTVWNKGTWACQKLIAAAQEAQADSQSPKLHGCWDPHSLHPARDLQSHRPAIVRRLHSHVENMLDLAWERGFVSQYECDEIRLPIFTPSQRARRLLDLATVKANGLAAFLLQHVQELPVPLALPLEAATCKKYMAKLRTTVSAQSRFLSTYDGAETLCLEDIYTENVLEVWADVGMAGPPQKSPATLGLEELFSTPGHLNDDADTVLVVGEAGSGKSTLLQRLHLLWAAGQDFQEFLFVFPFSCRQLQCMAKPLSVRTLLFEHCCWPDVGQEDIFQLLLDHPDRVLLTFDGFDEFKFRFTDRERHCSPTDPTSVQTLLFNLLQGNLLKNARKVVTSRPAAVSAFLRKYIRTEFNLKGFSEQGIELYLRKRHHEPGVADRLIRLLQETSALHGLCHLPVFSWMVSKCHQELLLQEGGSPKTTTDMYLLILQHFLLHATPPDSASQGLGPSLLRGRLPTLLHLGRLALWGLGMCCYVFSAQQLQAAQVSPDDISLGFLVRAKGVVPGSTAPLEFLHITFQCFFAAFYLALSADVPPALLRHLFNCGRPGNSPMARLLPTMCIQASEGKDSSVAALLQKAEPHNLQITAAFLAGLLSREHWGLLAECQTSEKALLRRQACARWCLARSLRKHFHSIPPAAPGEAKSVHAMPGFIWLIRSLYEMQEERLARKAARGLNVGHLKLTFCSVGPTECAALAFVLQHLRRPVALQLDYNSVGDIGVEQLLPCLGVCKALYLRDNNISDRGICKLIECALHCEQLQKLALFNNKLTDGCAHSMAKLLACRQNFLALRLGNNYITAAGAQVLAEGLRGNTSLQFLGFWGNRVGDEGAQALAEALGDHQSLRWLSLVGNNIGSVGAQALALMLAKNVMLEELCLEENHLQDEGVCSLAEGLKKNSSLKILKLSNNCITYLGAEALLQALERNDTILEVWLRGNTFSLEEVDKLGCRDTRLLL
Induced myeloid leukemia cell differentiation protein Mcl-1, sequence (Q07820 whole entry): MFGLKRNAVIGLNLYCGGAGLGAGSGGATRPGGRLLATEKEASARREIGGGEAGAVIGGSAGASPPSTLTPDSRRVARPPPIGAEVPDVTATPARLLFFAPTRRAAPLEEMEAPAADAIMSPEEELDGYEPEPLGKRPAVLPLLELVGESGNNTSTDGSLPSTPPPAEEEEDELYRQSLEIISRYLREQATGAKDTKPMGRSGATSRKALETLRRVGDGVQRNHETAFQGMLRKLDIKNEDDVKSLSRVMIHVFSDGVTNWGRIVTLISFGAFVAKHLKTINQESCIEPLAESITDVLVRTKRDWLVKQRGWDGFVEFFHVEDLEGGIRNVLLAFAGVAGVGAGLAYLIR
Cytochrome P450 3A4, sequence (P08684 whole entry): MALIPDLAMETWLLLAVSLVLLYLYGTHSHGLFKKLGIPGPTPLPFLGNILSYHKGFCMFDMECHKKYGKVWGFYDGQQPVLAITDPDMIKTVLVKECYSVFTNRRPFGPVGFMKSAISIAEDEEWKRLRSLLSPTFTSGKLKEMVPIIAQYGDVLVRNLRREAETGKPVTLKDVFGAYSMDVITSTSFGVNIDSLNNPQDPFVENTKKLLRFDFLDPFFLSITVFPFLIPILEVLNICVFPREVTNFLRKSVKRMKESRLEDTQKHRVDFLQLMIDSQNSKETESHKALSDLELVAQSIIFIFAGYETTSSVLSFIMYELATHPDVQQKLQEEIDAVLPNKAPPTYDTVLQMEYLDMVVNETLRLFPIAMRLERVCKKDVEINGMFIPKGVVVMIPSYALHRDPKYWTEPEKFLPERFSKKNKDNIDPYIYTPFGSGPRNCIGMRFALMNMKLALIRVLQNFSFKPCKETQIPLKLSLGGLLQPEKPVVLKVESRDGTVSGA
Ras and Rab interactor 1/Tyrosine-protein kinase ABL1, sequence (P00519 whole entry): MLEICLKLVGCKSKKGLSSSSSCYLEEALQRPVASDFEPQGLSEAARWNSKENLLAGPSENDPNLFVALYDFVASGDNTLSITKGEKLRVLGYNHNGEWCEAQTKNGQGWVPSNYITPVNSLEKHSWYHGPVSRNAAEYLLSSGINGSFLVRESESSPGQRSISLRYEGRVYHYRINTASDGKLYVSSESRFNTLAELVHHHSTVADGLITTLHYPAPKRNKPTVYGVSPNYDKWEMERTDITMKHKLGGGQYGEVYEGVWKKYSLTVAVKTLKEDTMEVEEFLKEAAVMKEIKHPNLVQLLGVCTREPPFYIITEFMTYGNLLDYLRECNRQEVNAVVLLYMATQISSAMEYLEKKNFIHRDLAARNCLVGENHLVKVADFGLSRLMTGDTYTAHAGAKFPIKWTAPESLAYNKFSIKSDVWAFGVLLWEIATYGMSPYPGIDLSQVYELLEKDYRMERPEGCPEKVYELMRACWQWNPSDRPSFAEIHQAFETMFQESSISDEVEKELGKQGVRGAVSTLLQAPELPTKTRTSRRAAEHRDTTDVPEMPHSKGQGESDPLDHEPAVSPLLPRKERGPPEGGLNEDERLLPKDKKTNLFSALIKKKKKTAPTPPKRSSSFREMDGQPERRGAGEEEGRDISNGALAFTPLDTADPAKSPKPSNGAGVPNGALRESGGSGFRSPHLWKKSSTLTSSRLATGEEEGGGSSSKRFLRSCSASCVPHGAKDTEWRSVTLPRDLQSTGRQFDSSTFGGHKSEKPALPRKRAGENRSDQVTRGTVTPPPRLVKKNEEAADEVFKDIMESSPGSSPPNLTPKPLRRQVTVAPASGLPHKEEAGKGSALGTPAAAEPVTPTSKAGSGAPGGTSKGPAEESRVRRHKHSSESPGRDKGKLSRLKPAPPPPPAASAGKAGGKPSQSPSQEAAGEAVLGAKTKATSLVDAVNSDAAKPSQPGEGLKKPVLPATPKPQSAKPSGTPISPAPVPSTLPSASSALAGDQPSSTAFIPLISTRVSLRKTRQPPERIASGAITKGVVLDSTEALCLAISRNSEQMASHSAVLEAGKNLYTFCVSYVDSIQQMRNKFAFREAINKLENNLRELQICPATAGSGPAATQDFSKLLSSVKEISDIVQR
Ras and Rab interactor 1/Tyrosine-protein kinase ABL1, sequence (Q13671 whole entry): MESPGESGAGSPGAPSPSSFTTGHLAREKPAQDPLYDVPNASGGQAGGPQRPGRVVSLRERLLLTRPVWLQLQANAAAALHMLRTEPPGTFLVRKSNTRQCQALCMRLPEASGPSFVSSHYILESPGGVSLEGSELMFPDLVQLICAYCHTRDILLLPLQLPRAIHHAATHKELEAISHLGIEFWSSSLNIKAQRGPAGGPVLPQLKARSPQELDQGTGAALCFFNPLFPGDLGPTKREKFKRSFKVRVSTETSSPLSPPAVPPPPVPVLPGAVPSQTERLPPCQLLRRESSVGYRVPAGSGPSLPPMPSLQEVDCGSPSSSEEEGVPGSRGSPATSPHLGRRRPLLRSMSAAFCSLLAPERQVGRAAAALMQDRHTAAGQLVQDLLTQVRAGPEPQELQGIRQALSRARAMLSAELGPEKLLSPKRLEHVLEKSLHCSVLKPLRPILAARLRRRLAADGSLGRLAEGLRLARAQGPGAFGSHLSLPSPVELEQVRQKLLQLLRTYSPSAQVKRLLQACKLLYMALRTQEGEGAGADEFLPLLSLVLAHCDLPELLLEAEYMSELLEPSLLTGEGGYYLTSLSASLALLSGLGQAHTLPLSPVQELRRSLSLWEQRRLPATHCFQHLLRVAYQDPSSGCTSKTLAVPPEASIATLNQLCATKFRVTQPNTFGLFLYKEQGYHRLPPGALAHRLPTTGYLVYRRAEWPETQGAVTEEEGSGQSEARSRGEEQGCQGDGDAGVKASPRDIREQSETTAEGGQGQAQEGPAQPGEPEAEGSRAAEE

CCn1cc(C(=O)NCc2ccc3c(c2)OCO3)c2cc(OC)c(OC)cc2c1=O
IC50 (Hexokinase HKDC1): 17.2 µM (active) | IC50 [1]: 7.31 µM (not active)

CC(C)CN1CCc2nc(-c3ccccc3)c3c(c2C1)COC(C)C3 (configuration not stated)
AC50 (Cytochrome P450 3A4): 3.16 µM (inconclusive) | AC50 (Cytochrome P450 2D6): 3.16 µM (inconclusive)

CCOc1ccccc1Nc1nnc(SCc2nnc(-c3cc(OC)c(OC)c(OC)c3)o2)s1
IC50 (Hexokinase HKDC1): 18.8 µM (active) | EC50 [2]: 21.7 µM (active) | IC50 (H9c2): > 79 µM (inactive)

Cc1ccc(-n2c(SCc3cc(=O)n4ccsc4n3)nnc2-c2cccnc2)c(C)c1
IC50 (Estrogen receptor beta [3]): 0.721 µM (not active) | IC50 [4]: 19.6 µM (inactive) | IC50 (Estrogen receptor beta [5]): > 50 µM (not active) | IC50 (Bcl-2-like protein 10): > 100 µM (inactive)

CCOC(=O)C1(CCCc2ccccc2)CCN(C2CCSCC2)CC1
IC50 [6]: 16.7 µM (not active) | IC50 [7]: > 35 µM (not active)

O=C(c1cc2c(s1)CCC2)N1CCN(c2ccccc2)CC1
IC50 (Estrogen receptor beta [3]): > 50 µM (not active) | IC50 [8]: 22.4 µM (active) | IC50 (Estrogen receptor beta [5]): 3.87 µM (active) | IC50 (Bcl-2-like protein 10): 36.3 µM (active)

N#CC(c1ccccc1)c1ccc2c(C(F)(F)F)cc(C(F)(F)F)nc2n1 (configuration not stated)
IC50 (Tumor necrosis factor): 5.88 µM (active) | EC50 (HEK293 [9]): 4.36 µM (active) | EC50 [10]: 13.4 µM (active) | IC50 (HEK293 [11]): > 20 µM (inactive) | IC50 (HEK293 [12]): 15.4 µM (active) | IC50 (HEK293 [13]): > 20 µM (inactive) | IC50 [14]: 3.99 µM (active) | IC50 (HEK293 [15]): > 20 µM (inactive) | IC50 (HEK293 [16]): > 20 µM (inactive) | IC50 [17]: 3.71 µM (active) | IC50 (Nonstructural protein 1): 21.3 µM (active)

Cc1cc(C(=O)NC2CCCc3c2cnn3-c2ccccc2F)n(C)n1 (configuration not stated)
IC50 (Tumor necrosis factor): > 20 µM (inactive) | IC50 [14]: > 20 µM (inactive) | IC50 (HEK293 [16]): > 20 µM (inactive) | IC50 [17]: 0.146 µM (active)

O=C(Nc1ccc(Cl)cc1)c1ccc(CCN2CCc3ccccc3C2)cc1
IC50 (Tumor necrosis factor): > 20 µM (inactive) | IC50 [14]: > 20 µM (inactive) | IC50 (HEK293 [16]): > 20 µM (inactive) | IC50 [17]: > 20 µM (inactive)

COc1ccc2cc(CCNC(=O)c3ccc(S(=O)(=O)N4CCCC4)cc3)c(O)nc2c1
IC50 (Hexokinase HKDC1): 7.58 µM (active)
